Reference: PubChem BioAssay AID330 (DTP/NCI, 2004)
Where “and” joins values, the source holds several entries; their conditions need not be identical. Identical values can stand only once. Inconclusive results and toxic doses are left out.

Tested on: P388 leukemia ip, CD2F1 mice, survival T/C
Assay: NCI In Vivo Anticancer Drug Screen. Data for tumor model P388 Leukemia (intraperitoneal) in CD2F1 (CDF1) mice
Conditions: endpoint: median survival time, higher = longer survival
In short: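 Mice carrying the transplanted tumor received test compound or vehicle. Survival was recorded in each group, and the value is the treated-group measurement divided by that of the vehicle-treated control group.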

[1] = dose: 50.0 mg/kg/injection, schedule: Q01DX005 (ip), vehicle: saline with Tween-80
[2] = dose: 100.0 mg/kg/injection, schedule: Q01DX005 (ip), vehicle: saline with Tween-80
[3] = dose: 200.0 mg/kg/injection, schedule: Q01DX005 (ip), vehicle: saline with Tween-80
[4] = dose: 50.0 mg/kg/injection, schedule: Q01DX009 (ip), vehicle: saline
[5] = dose: 100.0 mg/kg/injection, schedule: Q01DX009 (ip), vehicle: saline
[6] = dose: 200.0 mg/kg/injection, schedule: Q01DX009 (ip), vehicle: saline
[7] = dose: 60.0 mg/kg/injection, schedule: Q01DX005 (ip), vehicle: Klucel (hydroxypropylcellulose) (HPC)
[8] = dose: 120.0 mg/kg/injection, schedule: Q01DX005 (ip), vehicle: Klucel (hydroxypropylcellulose) (HPC)
[9] = dose: 50.0 mg/kg/injection, schedule: Q01DX009 (ip), vehicle: Klucel (hydroxypropylcellulose) (HPC)
[10] = dose: 100.0 mg/kg/injection, schedule: Q01DX009 (ip), vehicle: Klucel (hydroxypropylcellulose) (HPC)
[11] = dose: 200.0 mg/kg/injection, schedule: Q01DX009 (ip), vehicle: Klucel (hydroxypropylcellulose) (HPC)
[12] = dose: 60.0 mg/kg/injection, schedule: Q01DX005 (ip), vehicle: saline with Tween-80
[13] = dose: 120.0 mg/kg/injection, schedule: Q01DX005 (ip), vehicle: saline with Tween-80
[14] = dose: 240.0 mg/kg/injection, schedule: Q01DX005 (ip), vehicle: saline with Tween-80
[15] = dose: 100.0 mg/kg/injection, schedule: Q01DX009 (ip), vehicle: saline with Tween-80
[16] = dose: 200.0 mg/kg/injection, schedule: Q01DX009 (ip), vehicle: saline with Tween-80
[17] = dose: 50.0 mg/kg/injection, schedule: Q01DX009 (ip), vehicle: saline with Tween-80
[18] = dose: 25.0 mg/kg/injection, schedule: Q01DX009 (ip), vehicle: saline with Tween-80
[19] = dose: 12.5 mg/kg/injection, schedule: Q01DX009 (ip), vehicle: saline with Tween-80

Compound: O=C1c2sccc2C2C1N2C(=O)C(F)(F)F (centres undefined)
- T/C [1]: 95 % of control
- T/C [2]: 98 % of control
- T/C [3]: 104 % of control

Compound: O=C(CSc1nc(-c2ccccc2)c(-c2ccccc2)o1)N1CCCCC1
- T/C [4]: 93 % of control
- T/C [5]: 110 % of control
- T/C [6]: 110 % of control

Compound: O=C(Oc1ccc[nH]c1=O)c1ccc([N+](=O)[O-])cc1
- T/C (dose: 12.5 mg/kg/injection, schedule: Q01DX009 (ip), vehicle: saline): 106 % of control and 110 % of control
- T/C (dose: 25.0 mg/kg/injection, schedule: Q01DX009 (ip), vehicle: saline): 101 % of control and 110 % of control
- T/C [4]: 102 % of control and 103 % of control and 118 % of control
- T/C [5]: 105 % of control and 118 % of control
- T/C [6]: 100 % of control and 110 % of control and 91 % of control
- T/C (dose: 400.0 mg/kg/injection, schedule: Q01DX009 (ip), vehicle: saline): 101 % of control and 110 % of control

Compound: CCCCCCCCCC(O)CCCCCC (centres undefined)
- T/C (dose: 88.0 mg/kg/injection, schedule: Q01DX009 (ip), vehicle: other): 109 % of control
- T/C (dose: 132.0 mg/kg/injection, schedule: Q01DX009 (ip), vehicle: other): 109 % of control
- T/C (dose: 200.0 mg/kg/injection, schedule: Q01DX009 (ip), vehicle: other): 118 % of control

Compound: O=C(O)c1c(Cl)n(Cc2cc(Cl)ccc2Cl)c2ccccc12
- T/C [7]: 95 % of control
- T/C [8]: 88 % of control

Compound: O=NN(Cc1ccc(Cl)cc1)NC1=NCCN1
- T/C [9]: 98 % of control
- T/C [10]: 99 % of control
- T/C [11]: 105 % of control

Compound: CCOc1c(N=Nc2ccc(Cl)cc2)c(-c2ccccc2)nn1C(N)=S
- T/C (dose: 50.0 mg/kg/injection, schedule: Q01DX005 (ip), vehicle: saline + Tween-80 + alcohol): 108 % of control
- T/C (dose: 100.0 mg/kg/injection, schedule: Q01DX005 (ip), vehicle: saline + Tween-80 + alcohol): 94 % of control
- T/C (dose: 200.0 mg/kg/injection, schedule: Q01DX005 (ip), vehicle: saline + Tween-80 + alcohol): 99 % of control

Compound: O/N=C\c1ccc(/C=N/O)cc1
- T/C (dose: 50.0 mg/kg/injection, schedule: Q04DX003 (ip), vehicle: saline with Tween-80): 100 % of control
- T/C (dose: 100.0 mg/kg/injection, schedule: Q04DX003 (ip), vehicle: saline with Tween-80): 100 % of control
- T/C (dose: 200.0 mg/kg/injection, schedule: Q04DX003 (ip), vehicle: saline with Tween-80): 95 % of control

Compound: CS(=O)(=O)O
- T/C [4]: 100 % of control
- T/C [5]: 110 % of control
- T/C [6]: 108 % of control

Compound: O=C(CCl)N1CCN(C(c2ccccc2)c2ccccc2)CC1
- T/C [12]: 99 % of control
- T/C [13]: 100 % of control
- T/C [14]: 99 % of control

Compound: C/C(=N\N1CN(C(C)C(=O)O)P(N(CCO)CCO)N=C1N)c1cccs1 (centres undefined)
- T/C (dose: 7.5 mg/kg/injection, schedule: Q01DX005 (ip), vehicle: saline): 98 % of control
- T/C (dose: 15.0 mg/kg/injection, schedule: Q01DX005 (ip), vehicle: saline): 101 % of control
- T/C (dose: 30.0 mg/kg/injection, schedule: Q01DX005 (ip), vehicle: saline): 98 % of control

Compound: CC1CC(=O)C2(C)C1CC1CCC2(C)OC1(C)C (centres undefined)
- T/C [15]: 100 % of control
- T/C [16]: 102 % of control
- T/C (dose: 400.0 mg/kg/injection, schedule: Q01DX009 (ip), vehicle: saline with Tween-80): 100 % of control

Compound: O=C1NCC(c2ccccc2)N1 (centres undefined)
- T/C [17]: 119 % of control
- T/C [15]: 100 % of control
- T/C [16]: 106 % of control

Compound: Cc1cc(=O)c2c(ccc3cc4ccccc4cc32)[nH]1
- T/C [1]: 98 % of control
- T/C [2]: 98 % of control
- T/C [3]: 97 % of control

Compound: Nc1ncnc2c1ncn2C1OC(CO)C2OC(=S)OC21 (centres undefined)
- T/C [18]: 96 % of control
- T/C [17]: 101 % of control
- T/C [15]: 100 % of control
- T/C [16]: 100 % of control

Compound: C/C(=N\NC(=S)N1CCN(C2CCCCCC2)CC1)c1ccccn1
- T/C (dose: 1.57 mg/kg/injection, schedule: Q01DX005 (ip), vehicle: saline with Tween-80): 96 % of control
- T/C (dose: 3.13 mg/kg/injection, schedule: Q01DX005 (ip), vehicle: saline with Tween-80): 100 % of control
- T/C (dose: 6.25 mg/kg/injection, schedule: Q01DX005 (ip), vehicle: saline with Tween-80): 114 % of control and 120 % of control

Compound: Cc1ccc(S(=O)(O)=S)cc1
- T/C [4]: 101 % of control
- T/C [5]: 107 % of control
- T/C (dose: 100.0 mg/kg/injection, schedule: Q04DX002 (ip), vehicle: saline): 105 % of control
- T/C [6]: 115 % of control
- T/C (dose: 200.0 mg/kg/injection, schedule: Q04DX002 (ip), vehicle: saline): 101 % of control
- T/C (dose: 400.0 mg/kg/injection, schedule: Q04DX002 (ip), vehicle: saline): 102 % of control

Compound: Cc1cc(NC(=S)SCc2ccc3c(c2)OCO3)ccc1Cl
- T/C [9]: 112 % of control
- T/C (dose: 50.0 mg/kg/injection, schedule: Q01DX009 (ip), vehicle: suspension in saline): 91 % of control
- T/C [10]: 122 % of control
- T/C (dose: 100.0 mg/kg/injection, schedule: Q01DX009 (ip), vehicle: suspension in saline): 94 % of control
- T/C [11]: 114 % of control
- T/C (dose: 200.0 mg/kg/injection, schedule: Q01DX009 (ip), vehicle: suspension in saline): 90 % of control

Compound: C(=N\Nc1c2c(nc3ccccc13)CCCC2)/c1ccc2c(c1)OCO2
- T/C (dose: 3.12 mg/kg/injection, schedule: Q01DX005 (ip), vehicle: Klucel (hydroxypropylcellulose) (HPC)): 109 % of control
- T/C (dose: 6.25 mg/kg/injection, schedule: Q01DX005 (ip), vehicle: Klucel (hydroxypropylcellulose) (HPC)): 95 % of control
- T/C (dose: 12.5 mg/kg/injection, schedule: Q01DX005 (ip), vehicle: Klucel (hydroxypropylcellulose) (HPC)): 90 % of control and 95 % of control

Compound: CCOc1c(N=Nc2ccc(C)cc2)c(C)nn1C(N)=S
- T/C (dose: 15.0 mg/kg/injection, schedule: Q01DX005 (ip), vehicle: Klucel + Tween-80): 103 % of control
- T/C (dose: 30.0 mg/kg/injection, schedule: Q01DX005 (ip), vehicle: Klucel + Tween-80): 105 % of control

Compound: COc1cc(C(Nc2ncccn2)c2cc3c(cc2O)OCO3)cc(OC)c1O (centres undefined)
- T/C [12]: 105 % of control
- T/C [13]: 90 % of control
- T/C [14]: 90 % of control

Compound: Cc1cc(=O)oc2cc3c(cc12)CCCN3
- T/C [7]: 101 % of control
- T/C [8]: 104 % of control
- T/C (dose: 240.0 mg/kg/injection, schedule: Q01DX005 (ip), vehicle: Klucel (hydroxypropylcellulose) (HPC)): 96 % of control

Compound: COc1cc2nc(C)n(C)c(=O)c2cc1OC
- T/C [19]: 95 % of control
- T/C [18]: 116 % of control
- T/C [17]: 101 % of control

Compound: O=C1NNC(c2ccccc2)C1(Cl)Cl (centres undefined)
- T/C [19]: 101 % of control
- T/C [17]: 99 % of control

Compound: CCOP(=O)(CC(=O)NCc1cc(C(C)(C)C)c(O)c(C(C)(C)C)c1)OCC
- T/C [17]: 100 % of control
- T/C [15]: 93 % of control
- T/C [16]: 96 % of control

Compound: O=C(NCCNC(=O)c1cc(Cl)cc(Cl)c1O)c1cc(Cl)cc(Cl)c1O
- T/C (dose: 15.0 mg/kg/injection, schedule: Q01DX005 (ip), vehicle: saline with Tween-80): 92 % of control
- T/C (dose: 30.0 mg/kg/injection, schedule: Q01DX005 (ip), vehicle: saline with Tween-80): 92 % of control
- T/C [12]: 87 % of control and 89 % of control

Compound: N=C(N)c1ccc(-c2ccc(-c3ccc(C(=N)N)cc3)s2)cc1
- T/C (dose: 12.5 mg/kg/injection, schedule: Q04DX003 (ip), vehicle: suspension in saline): 106 % of control
- T/C (dose: 25.0 mg/kg/injection, schedule: Q04DX003 (ip), vehicle: suspension in saline): 120 % of control
- T/C (dose: 100.0 mg/kg/injection, schedule: Q04DX003 (ip), vehicle: suspension in saline): 169 % of control

Compound: COc1c2c(c(OC)c3c1c(=O)c1ccccc1n3C)OCO2
- T/C [1]: 104 % of control
- T/C [2]: 104 % of control
- T/C [3]: 100 % of control

Compound: CC1=C(O)c2ccccc2C(=O)C1=O
- T/C [19]: 101 % of control
- T/C [18]: 113 % of control and 90 % of control
- T/C [17]: 105 % of control and 116 % of control
- T/C [15]: 92 % of control
- T/C [16]: 90 % of control

Compound: O=C(O)/C=C/c1ccc([N+](=O)[O-])o1
- T/C (dose: 25.0 mg/kg/injection, schedule: Q01DX009 (ip), vehicle: Klucel (hydroxypropylcellulose) (HPC)): 107 % of control and 117 % of control
- T/C [9]: 120 % of control

Compound: CN(C)C1(c2ccccc2)CS(=O)(=O)C1
- T/C [17]: 96 % of control
- T/C [15]: 96 % of control
- T/C [16]: 94 % of control

Compound: CC(=O)C(N)CC(C)C (centres undefined)
- T/C (dose: 50.0 mg/kg/injection, schedule: Q01DX005 (ip), vehicle: saline): 98 % of control
- T/C (dose: 100.0 mg/kg/injection, schedule: Q01DX005 (ip), vehicle: saline): 100 % of control
- T/C (dose: 200.0 mg/kg/injection, schedule: Q01DX005 (ip), vehicle: saline): 107 % of control
